Reference: patent EP0181109B1, “N6-benzopyrano- and benzothiopyrano-adenosines” (WARNER-LAMBERT COMPANY, priority 1984, dated 1986)
pIC50: −log10 of the molar value. Each block holds one molecule with its values, some of them ahead of it.

Legend:
adenosine A1 receptor = molecular target: T1, adenosine A1 receptor (Rattus norvegicus, UniProt P25099); test: Adenosine Receptor Binding - A1 Receptor Affinity (RBA 1), [3H]-CHA displacement; conditions: rat whole brain membranes, 1.0 nM [3H]-CHA, one hour at 25°C
T1 construct: Whole brain minus cerebellum and brainstem from male Long Evans rats (150-200 g) was homogenized; from tissue; host or cells: rat whole brain minus cerebellum and brainstem (membrane homogenate)
T1 sequence (P25099 1-326): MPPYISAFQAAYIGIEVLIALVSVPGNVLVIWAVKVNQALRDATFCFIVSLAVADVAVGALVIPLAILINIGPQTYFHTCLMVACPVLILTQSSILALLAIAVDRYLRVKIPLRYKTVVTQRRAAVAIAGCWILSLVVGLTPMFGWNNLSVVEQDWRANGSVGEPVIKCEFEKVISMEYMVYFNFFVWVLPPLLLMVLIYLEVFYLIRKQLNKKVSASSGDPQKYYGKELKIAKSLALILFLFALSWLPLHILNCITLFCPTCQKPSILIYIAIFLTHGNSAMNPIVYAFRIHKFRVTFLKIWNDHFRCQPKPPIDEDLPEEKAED
Procedure: Whole brain minus cerebellum and brainstem from male Long Evans rats (150-200 g) was homogenized in 30 volumes of ice-cold 0.05 M Tris-HCI buffer pH 7.7 using a Brinkman Polytron PT-10, (setting number 6 for 20 seconds) and centrifuged for ten minutes at 20,000 x g (Sorvall RC-2), 4°C. The supernatant was discarded, and the pellet was resuspended and centrifuged as before. The pellet was resuspended in 20 ml Tris-HCI buffer containing two International Units/ml of adenosine deaminase (Sigma Type III from calf intestinal mucosa), incubated at 37°C for 30 minutes, then subsequently at 0°C for ten minutes. The homogenate was again centrifuged, and the final pellet was resuspended in ice-cold 0.05 M Tris-HCI buffer pH 7.7 to a concentration of 20 mg/ml original wet tissue weight and used immediately.
Tissue homogenate (10 mg/ml) was incubated in 0.05 M Tris-HCI buffer pH 7.7 containing 1.0 nM [^3H]-N^6-cyclohexyladenosine (^3H]-CHA) with or without test agents in triplicate for one hour at 25°C. Incubation volume was 2 ml. Unbound [^3H]-CHA was separated by rapid filtration under reduced pressure through Whatman glass fiber (GF/B) filters. The filters were rinsed three times with 5 ml of ice cold 0.05 M Tris-HCI buffer pH 7.7. The radio-labele ligand retained on the filter was measured by liquid scintillation spectrophotometry after shaking the filters for one hour or longer on a mechanical shaker in 10 ml of Beckman Ready-Solv HP scintillation cocktail.
Nonspecific binding was defined as the binding which occurred in the presence of 1 mM theophylline. The concentration of test agent which inhibited 50% of the specific binding (IC50) was determined by nonlinear computer curve fit. The Scatchard plot was calculated by linear regression of the line obtained by plotting the amount of radioligand bound (pmoles/gram of tissue) versus
• bound radioligand • free radioligand Since the amount of radioligand bound was a small fraction of the total amount added, free radioligand was defined as the concentration (nM) of radioligand added to the incubation mixture. The Hill coefficient was calculated by linear regression of the line obtained by plotting the log of the bound radioligand vs the log of the • bound radioligand • Bmax - bound radioligand • The maximal number of binding sites (Bmax) was calculated from the Scatchard plot.

Carrageenan pleurisy = test: Carrageenan Pleurisy Assay; assay type: in vivo; conditions: IP route, rat
Procedure: Assessment of another activity is provided by the carrageenan pleurisy assay. This assay indicates antiinflammatory activity. Carrageenan pleurisy is induced as previously described by Carter, G. W., et al., in J. Pharm. Pharmacol 34:66-67, 1982. Carrageenan ([…]) is injected intrapleurally in a 0.25 ml volume of pyrogen-free saline. Four hours later, the rats are sacrificed and 2 ml of a phenol red solution (325 mg phenol red in 1 liter of 0.05 M phosphate buffered saline) are added to each pleural cavity. The contents of the cavities are mixed and transferred to glass test tubes. A 50 pl aliquot is removed from each tube and exudate cells are counted after red blood cells lysis (with Zapoglobin; Coulter Electronics, Hialeah FL) using a Coulter model ZBI counter. The remaining exudate-phenol red mixture is centrifuged at […] for 15 minutes. One hundred pl of the supernatent fluid is diluted with 3.9 ml of phosphate buffer (0.072 M of tribasic sodium phosphate Na3PO4·12H2O, in water) and the absorbance is measured at 650 nm.
Exudate volume is calculated as follows: [formula] where V1 = unknown volume of exudate, V2 = volume of dye added to cavity (2 ml), A1 = absorbance of exudate (assumed to be zero), A2 = absorbance of the phenol red solution, A3 = absorbance of exudate and phenol red solution.
Inhibition of exudate or formation is calculated by the following equations: • % inhibition (exudate) = [formula] • % inhibition (cell count) = [formula] ID50 values are calculated by Probit analysis.
The compound of Example 1 was adminstered one hour prior to carrageenan injection.

pIC50 (adenosine A1 receptor): 7.35
SMILES: C[C@H]1Oc2ccccc2C[C@@H]1Nc1ncnc2c1ncn2[C@@H]1O[C@H](CO)[C@@H](O)[C@H]1O (relative stereo) [Example 8, N^l-[trans-2-Methyl,-3-chromanylamino]adenosine]

pIC50 (adenosine A1 receptor): 7.06
SMILES: OC[C@H]1O[C@@H](n2cnc3c(NC4CCOc5ccccc54)ncnc32)[C@H](O)[C@@H]1O (stereo partly shown) [Example 1]

SMILES: OC[C@H]1O[C@@H](n2cnc3c(NC4CSc5ccccc5C4)ncnc32)[C@H](O)[C@@H]1O (stereo partly shown) [Example 2]
pIC50 (adenosine A1 receptor): 8.20

pIC50 (adenosine A1 receptor): 7.85
SMILES: COc1ccc2c(c1)OCC(Nc1ncnc3c1ncn3[C@@H]1O[C@H](CO)[C@@H](O)[C@H]1O)C2 (stereo partly shown) [Example 3]

pIC50 (adenosine A1 receptor): 7.70
SMILES: OC[C@H]1O[C@@H](n2cnc3c(NC4COc5ccccc5C4)ncnc32)[C@H](O)[C@@H]1O (stereo partly shown) [Example 4, N^6-[3-Chromanylamino]adenosine]

pIC50 (adenosine A1 receptor): 7.77
SMILES: OC[C@H]1O[C@@H](n2cnc3c(NC4COc5c(Cl)cccc5C4)ncnc32)[C@H](O)[C@@H]1O (stereo partly shown) [Example 5]
% Inhibition Exudate (Carrageenan pleurisy; 3 mg/kg): 22.7%
% Inhibition WBC (Carrageenan pleurisy; 3 mg/kg): 27.2%
% Inhibition Exudate (Carrageenan pleurisy; 10 mg/kg): 40.2%
% Inhibition WBC (Carrageenan pleurisy; 10 mg/kg): 68.0%

pIC50 (adenosine A1 receptor): 8.31
SMILES: COc1ccc2c(c1)CC(Nc1ncnc3c1ncn3[C@@H]1O[C@H](CO)[C@@H](O)[C@H]1O)CO2 (stereo partly shown) [Example 6]
% Inhibition Exudate (Carrageenan pleurisy; 1 mg/kg): 50.9%
% Inhibition WBC (Carrageenan pleurisy; 1 mg/kg): 49.8%
% Inhibition Exudate (Carrageenan pleurisy; 3 mg/kg): 42.2%
% Inhibition WBC (Carrageenan pleurisy; 3 mg/kg): 37.5%

pIC50 (adenosine A1 receptor): 8.11
SMILES: CC1Oc2ccccc2CC1Nc1ncnc2c1ncn2C1OC(CO)C(O)C1O (stereo not drawn) [Example 7, N^6-[cis-2-Methyl-3-chromanylamino]adenosine]

pIC50 (adenosine A1 receptor): 8.09
SMILES: Cc1cc2c(cc1C)OCC(Nc1ncnc3c1ncn3[C@@H]1O[C@H](CO)[C@@H](O)[C@H]1O)C2 (stereo partly shown) [Example 9, N^6-[6,7-Dimethyl-3-chromanylamino]adenosine]
% Inhibition Exudate (Carrageenan pleurisy; 3 mg/kg): 12.5%
% Inhibition WBC (Carrageenan pleurisy; 3 mg/kg): 13.0%
% Inhibition Exudate (Carrageenan pleurisy; 30 mg/kg): 31.9%
% Inhibition WBC (Carrageenan pleurisy; 30 mg/kg): 30.6%

pIC50 (adenosine A1 receptor): 7.57
SMILES: Cc1ccc2c(c1C)OCC(Nc1ncnc3c1ncn3[C@@H]1O[C@H](CO)[C@@H](O)[C@H]1O)C2 (stereo partly shown) [Example 10, N^6-[7,8-Dimethyl-3-chromanylamino]adenosine]

pIC50 (adenosine A1 receptor): 7.49
SMILES: Cc1ccc2c(c1C)OC(C)C(Nc1ncnc3c1ncn3[C@@H]1O[C@H](CO)[C@@H](O)[C@H]1O)C2 (stereo partly shown) [Example 11]

pIC50 (adenosine A1 receptor): 6.80
SMILES: CC(C)(C)c1ccc2c(c1)OCC(Nc1ncnc3c1ncn3[C@@H]1O[C@H](CO)[C@@H](O)[C@H]1O)C2 (stereo partly shown) [Example 13, N^6-[7-t-Butyl-3-chromanylamino)adenosine]

pIC50 (adenosine A1 receptor): 5.31
SMILES: COc1cc(OC)c2c(c1)OC(C)(C)CC2Nc1ncnc2c1ncn2[C@@H]1O[C@H](CO)[C@@H](O)[C@H]1O (stereo partly shown) [Example 14]

pIC50 (adenosine A1 receptor): 7.25
SMILES: OC[C@H]1O[C@@H](n2cnc3c(NC4CCSc5ccccc54)ncnc32)[C@H](O)[C@@H]1O (stereo partly shown) [Example 15]
% Inhibition Exudate (Carrageenan pleurisy; 1 mg/kg): 13.5%
% Inhibition WBC (Carrageenan pleurisy; 1 mg/kg): -10.7%
% Inhibition Exudate (Carrageenan pleurisy; 10 mg/kg): 63.9%
% Inhibition WBC (Carrageenan pleurisy; 10 mg/kg): -16.9%

pIC50 (adenosine A1 receptor): 6.21
SMILES: O=S1(=O)CCC(Nc2ncnc3c2ncn3[C@@H]2O[C@H](CO)[C@@H](O)[C@H]2O)c2ccccc21 (stereo partly shown) [Example 16, N^6-[4-Benzothiopyran-1,1-dioxideamino]adenosine]
